Measured values reported in patent US20250388602A1 (Genase Therapeutics B.V., priority 2022, published 2025).
Read-outs that look alike come from different tables or passages of the source. Each block holds one molecule with its values, some of them ahead of it.

Columns and labels:
in vitro [1] = details: for hHEPs % remaining: % remaining at 120 min, 1 μM; for half-life at 1 μM: human, hepatocytes
Protocol: Human Hepatocyte metabolic stability: Human hepatocytes (X008000, BioIVT) were freshly thawed prior to the incubations with test compound. Hepatocytes were transferred to 50 mL conical tubes and centrifuged 10 min at 100 g. Thawing medium was removed and replaced by preheated (37° C.) incubation medium (William's E Medium supplemented with GlutaMAX), to yield a hepatocyte density ˜1.5×10^6 cells/mL. Cell viability was determined using AO/PI staining and hepatocytes were diluted using incubation medium to a working density of 0.5×10^6 viable cells/mL. 198 μL of hepatocytes were added into each well of a 96-well plate and placed in the incubator to allow the hepatocytes to warm for 10 minutes. 2 μL test compound or positive control was placed into respective wells of the 96-well plate (final concentration test compound 1 μM) to start the reaction. The plate was returned to the incubator and 25 μL aliquots of the well contents were removed at time points of 0, 15, 30, 60, 90 and 120 minutes. The aliquots were mixed with 6 volumes (150 μL) of acetonitrile containing internal standards (100 nM alprazolam, 200 nM caffeine, and 100 nM tolbutamide) to terminate the reaction. The plate was centrifuged for 20 minutes at 3,200 g. Aliquots of 150 μL of the supernatants were used for LC/MS/MS analysis. All incubations were performed in duplicate.
(§1) Peak areas were determined from extracted ion chromatograms to determine the in vitro half-life (t½) of parent compound by regression analysis of the percent parent disappearance vs. time curve. The in vitro half-life (in vitro t½) was determined from the slope value (in vitro t½=−0.693/k). All calculations were carried out using Microsoft Excel.

in vitro [2] = details: for HLM % remaining: % remaining at 60 min, 1 μM; for half-life at 1 μM: both, human
Protocol: Human Liver Microsomal metabolic stability: The microsomal metabolic stability assay utilized pooled human liver microsomes (mixed gender, BD Gentest), with supplemented cofactors NADPH and UDPGA (Solarbio S&T Co., LTD). Two separate experiments were performed as follows: • a) With cofactors (NADPH & UDPGA): 25 μL of 10 mM NADPH and 25 μL of 20 mM UDPGA were added to 197.5 μL of reaction solution (phosphate buffer (final concentration in assay 100 mM), MgCl2 (final concentration in assay (5 mM)), alamethacin (final concentration in assay 0.025 mg/mL) and microsomes (final concentration in assay 0.5 mg/mL). • b) Without cofactors (NADPH & UDPGA): 50 μL of H2O was added to 197.5 μL of reaction solution.
The mixture was pre-warmed at 37° C. for 10 minutes. The reaction was started with the addition of 2.5 μL of 100 μM control compound or test compound solutions. Diclofenac was used as positive control in this study. The final concentration of control compound and test compounds was 1 μM. Aliquots of 25 μL were taken from the reaction solution at 0.5, 5, 15, 30 and 60 minutes. The reaction was stopped by the addition of 5 volumes of cold acetonitrile containing internal standards. Samples were centrifuged at 3,220 g for 40 minutes. An aliquot of 100 μL of the supernatant was mixed with 100 μL of ultra-pure H2O and then used for LC-MS/MS analysis. Peak areas were determined from extracted ion chromatograms. Percent parent remaining was calculated from the area ratio of test compound. The slope value was determined by linear regression of the natural logarithm of percent parent remaining versus incubation time curve.
as §1

MOLM-13 cells = assay: MOLM-13 cell viability (Assay B), Cell Titer-Glo; type: cell-based; details: Homo sapiens, read-out: IC50 MOLM13 inhibition activity
Protocol: MOLM-13 cells (an acute myeloid leukemia cell line) were plated in RPMI supplied with 10% FBS and 1% Pen/Strep in 384-well plates at 1,000 cells per well on day 0. On day 1, treatment of the cells with compound (concentration range 10E-5 and 6E-12 M) was initiated in the presence or absence of 100 μM uridine. After 72 hours incubation of the cells with or without test compound, the number of viable cells per well was assessed by Cell Titer-Glo Luminescent Cell Viability Assay (Promega, Madison, WI, USA). […] Each condition was tested in duplicate and the potency of test compounds was determined from two independent experiments.

recombinant human DHODH = recombinant human DHODH (Homo sapiens (Human), UniProt Q02127); assay: DHODH enzyme assay (Assay A), DCIP absorbance; type: biochemical
Protocol: Inhibition of human dihydroorotate dehydrogenase (DHODH) by example compounds as described herein was determined using one of two assays as described below.
DHODH enzyme assays were performed with 6 nM recombinant human DHODH (purified essentially as described by Walse et al., Biochemistry, 47, 8929-8936 (2008)). The reaction mixture consisted of 1 mM DL-dihydroorotic acid (#D7003, Sigma-Aldrich), 100 μM 3,4-dimethoxy-5-methyl-p-benzoquinone (#D9150, Sigma-Aldrich), and 100 μM 2,6-dichlorophenolindophenol sodium salt (DCIP) (#D1878, Sigma-Aldrich) in enzyme buffer (50 mM Tris-HCl pH 8.0, 0.1% Triton X-100, 150 mM KCl). A stock solution of 20 mM DCIP was prepared in enzyme buffer and filtered through Whatman paper just before use. Reactions were performed in a total volume of 100 μL, consisting of 1 μL of compound, 49 μL of enzyme and 50 μL of reaction mixture. Loss in absorbance by chromogen DCIP was measured at 595 nm following a 70 minute incubation at 32° C.

[3] = MOLM-13, 72 hours, bins ≥10 nM-<100 nM and <10 nM
[4] = bins ≥10 nM-<100 nM and <10 nM, read-out: IC50 DHODH inhibition activity

recombinant human DHODH, sequence (Q02127 whole entry): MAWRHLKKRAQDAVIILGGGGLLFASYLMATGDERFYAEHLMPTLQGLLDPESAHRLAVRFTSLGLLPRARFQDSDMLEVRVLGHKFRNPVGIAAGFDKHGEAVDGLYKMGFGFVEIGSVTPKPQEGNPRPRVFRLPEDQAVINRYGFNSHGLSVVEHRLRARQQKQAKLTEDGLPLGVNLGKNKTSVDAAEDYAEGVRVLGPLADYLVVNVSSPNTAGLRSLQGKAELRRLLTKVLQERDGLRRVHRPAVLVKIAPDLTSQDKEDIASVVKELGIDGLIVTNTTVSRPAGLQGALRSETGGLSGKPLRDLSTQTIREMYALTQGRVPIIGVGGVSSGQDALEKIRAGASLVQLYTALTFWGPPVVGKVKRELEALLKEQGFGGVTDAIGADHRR

- hHEPs % remaining (in vitro [1]): 100%
- half-life at 1 μM (in vitro [1]): > 10 h
- HLM % remaining (in vitro [2]): 100%
- half-life at 1 μM (in vitro [2]; pooled liver microsomes): > 6.08 h
Structure (SMILES): O=C(N[C@H]1COCc2c1cnn2-c1c(F)cccc1Cl)c1ncn2c1CCCC2 (single isomer, unassigned) [Ex-10]

Structure (SMILES): Cc1cccc(Cl)c1-n1ncc2c1COC[C@H]2NC(=O)c1ncc2n1CCCC2 [Ex-36, (S)—N-(1-(2-chloro-6-methylphenyl)-1,4,5,7-tetrahydropyrano[3,4-c]pyrazol-4-yl)-5,6,7,8-tetrahydroimidazo[1,5-a]pyridine-3-carboxamide]
- IC50 (MOLM-13 cells; [3]): < 10 nM
- IC50 (recombinant human DHODH; [4]): < 10 nM

Structure (SMILES): Cc1cccc(Cl)c1-n1ncc2c1COC[C@H]2NC(=O)c1n[nH]c2c1CCCC2 [Ex-37, (S)—N-(1-(2-chloro-6-methylphenyl)-1,4,5,7-tetrahydropyrano[3,4-c]pyrazol-4-yl)-4,5,6,7-tetrahydro-1H-indazole-3-carboxamide]
- IC50 (MOLM-13 cells; [3]): 10 to 100 nM
- IC50 (recombinant human DHODH; [4]): 10 to 100 nM

Structure (SMILES): Cc1cccc(Cl)c1-n1ncc2c1COC[C@H]2NC(=O)c1noc2c1CCCC2 [Ex-38, (S)—N-(1-(2-chloro-6-methylphenyl)-1,4,5,7-tetrahydropyrano[3,4-c]pyrazol-4-yl)-4,5,6,7-tetrahydrobenzo[d]isoxazole-3-carboxamide]
- IC50 (MOLM-13 cells; [3]): < 10 nM
- IC50 (recombinant human DHODH; [4]): < 10 nM

Structure (SMILES): CCc1c(C(=O)N[C@@H]2COCc3c2cnn3-c2c(C)cccc2Cl)n[nH]c1C [Ex-39, (S)—N-(1-(2-chloro-6-methylphenyl)-1,4,5,7-tetrahydropyrano[3,4-c]pyrazol-4-yl)-4-ethyl-5-methyl-1H-pyrazole-3-carboxamide]
- IC50 (MOLM-13 cells; MOLM-13, 72 h): 10 to 100 nM
- IC50 (recombinant human DHODH; [4]): 10 to 100 nM

- hHEPs % remaining (in vitro [1]): 76%
- half-life at 1 μM (in vitro [1]): 5.43 h
- HLM % remaining (in vitro [2]): 85%
- half-life at 1 μM (in vitro [2]; pooled liver microsomes): 3.93 h
Structure (SMILES): O=C(N[C@@H]1COCc2c1cnn2-c1ccccc1F)c1n[nH]c2c1CCCC2 [Ex-42, (S)—N-(1-(2-fluorophenyl)-1,4,5,7-tetrahydropyrano[3,4-c]pyrazol-4-yl)-4,5,6,7-tetrahydro-1H-indazole-3-carboxamide]

- hHEPs % remaining (in vitro [1]): 93%
- half-life at 1 μM (in vitro [1]): > 10 h
- HLM % remaining (in vitro [2]): 92%
- half-life at 1 μM (in vitro [2]; pooled liver microsomes): > 6.08 h
Structure (SMILES): O=C(N[C@@H]1COCc2c1cnn2-c1ccccc1F)c1noc2c1CCCC2 [Ex-43, (S)—N-(1-(2-fluorophenyl)-1,4,5,7-tetrahydropyrano[3,4-c]pyrazol-4-yl)-4,5,6,7-tetrahydrobenzo[d]isoxazole-3-carboxamide]

- half-life at 1 μM (in vitro [1]): 9.35 h
- HLM % remaining (in vitro [2]): 92%
- half-life at 1 μM (in vitro [2]; pooled human liver microsomes): > 6.08 h
Structure (SMILES): CCc1c(C(=O)N[C@@H]2COCc3c2cnn3-c2ccccc2F)n[nH]c1C [Ex-44, (S)-4-ethyl-N-(1-(2-fluorophenyl)-1,4,5,7-tetrahydropyrano[3,4-c]pyrazol-4-yl)-5-methyl-1H-pyrazole-3-carboxamide]

- IC50 (MOLM-13 cells; [3]): < 10 nM
- IC50 (recombinant human DHODH; [4]): 10 to 100 nM
Structure (SMILES): O=C(N[C@@H]1COCc2c1cnn2-c1cccc(C(F)(F)F)c1Cl)c1ncn2c1CCCC2 [Ex-50, (S)—N-(1-(2-chloro-3-(trifluoromethyl)phenyl)-1,4,5,7-tetrahydropyrano[3,4-c]pyrazol-4-yl)-5,6,7,8-tetrahydroimidazo[1,5-a]pyridine-1-carboxamide]

- IC50 (MOLM-13 cells; [3]): 10 to 100 nM
- IC50 (recombinant human DHODH; [4]): 10 to 100 nM
Structure (SMILES): COc1cccc(Cl)c1-n1ncc2c1COC[C@H]2NC(=O)c1ncn2c1CCCC2 [Ex-60, (S)—N-(1-(2-chloro-6-methoxyphenyl)-1,4,5,7-tetrahydropyrano[3,4-c]pyrazol-4-yl)-5,6,7,8-tetrahydroimidazo[1,5-a]pyridine-1-carboxamide]

Structure (SMILES): O=C(N[C@@H]1COCc2c1cnn2-c1cccc(O)c1Cl)c1ncn2c1CCCC2 [Ex-62, (S)—N-(1-(2-chloro-3-hydroxyphenyl)-1,4,5,7-tetrahydropyrano[3,4-c]pyrazol-4-yl)-5,6,7,8-tetrahydroimidazo[1,5-a]pyridine-1-carboxamide]
- IC50 (MOLM-13 cells; MOLM-13, 72 h): 10 to 100 nM
- IC50 (recombinant human DHODH): 10 to 100 nM

Structure (SMILES): CN(C)C(=O)COc1cccc(-n2ncc3c2COC[C@H]3NC(=O)c2ncn3c2CCCC3)c1Cl [Ex-64, (S)—N-(1-(2-chloro-3-(2-(dimethylamino)-2-oxoethoxy)phenyl)-1,4,5,7-tetrahydropyrano[3,4-c]pyrazol-4-yl)-5,6,7,8-tetrahydroimidazo[1,5-a]pyridine-1-carboxamide]
- IC50 (MOLM-13 cells; [3]): 10 to 100 nM
- IC50 (recombinant human DHODH): 10 to 100 nM

Structure (SMILES): COCCOc1cccc(-n2ncc3c2COC[C@H]3NC(=O)c2ncn3c2CCCC3)c1Cl [Ex-67, (S)—N-(1-(2-chloro-3-(2-methoxyethoxy)phenyl)-1,4,5,7-tetrahydropyrano[3,4-c]pyrazol-4-yl)-5,6,7,8-tetrahydroimidazo[1,5-a]pyridine-1-carboxamide]
- IC50 (MOLM-13 cells; [3]): < 10 nM
- IC50 (recombinant human DHODH; read-out: IC50 DHODH inhibition activity): < 10 nM

Structure (SMILES): O=C(N[C@@H]1COCc2c1cnn2-c1cccc(OCCO)c1Cl)c1ncn2c1CCCC2 [Ex-68, (S)—N-(1-(2-chloro-3-(2-hydroxyethoxy)phenyl)-1,4,5,7-tetrahydropyrano[3,4-c]pyrazol-4-yl)-5,6,7,8-tetrahydroimidazo[1,5-a]pyridine-1-carboxamide]
- IC50 (MOLM-13 cells; MOLM-13, 72 h): 10 to 100 nM
- IC50 (recombinant human DHODH): 10 to 100 nM

- IC50 (MOLM-13 cells; [3]): 10 to 100 nM
- IC50 (recombinant human DHODH; [4]): 10 to 100 nM
Structure (SMILES): O=C(N[C@@H]1COCc2c1cnn2-c1cccc(C(=O)N2CCCC2)c1Cl)c1ncn2c1CCCC2 [Ex-71, (S)—N-(1-(2-chloro-3-(pyrrolidine-1-carbonyl)phenyl)-1,4,5,7-tetrahydropyrano[3,4-c]pyrazol-4-yl)-5,6,7,8-tetrahydroimidazo[1,5-a]pyridine-1-carboxamide]

Structure (SMILES): O=C(N[C@@H]1COCc2c1cnn2-c1cccc(C(=O)N2CCCCC2)c1Cl)c1ncn2c1CCCC2 [Ex-72, (S)—N-(1-(2-chloro-3-(piperidine-1-carbonyl)phenyl)-1,4,5,7-tetrahydropyrano[3,4-c]pyrazol-4-yl)-5,6,7,8-tetrahydroimidazo[1,5-a]pyridine-1-carboxamide]
- IC50 (MOLM-13 cells; [3]): < 10 nM
- IC50 (recombinant human DHODH; [4]): < 10 nM

Structure (SMILES): O=C(N[C@@H]1COCc2c1cnn2-c1cccc(C(=O)N2CCOCC2)c1Cl)c1ncn2c1CCCC2 [Ex-73, (S)—N-(1-(2-chloro-3-(morpholine-4-carbonyl)phenyl)-1,4,5,7-tetrahydropyrano[3,4-c]pyrazol-4-yl)-5,6,7,8-tetrahydroimidazo[1,5-a]pyridine-1-carboxamide]
- IC50 (MOLM-13 cells; [3]): 10 to 100 nM
- IC50 (recombinant human DHODH): 10 to 100 nM

Structure (SMILES): CCN(CC)C(=O)c1cccc(-n2ncc3c2COC[C@H]3NC(=O)c2ncn3c2CCCC3)c1Cl [Ex-74, (S)—N-(1-(2-chloro-3-(diethylcarbamoyl)phenyl)-1,4,5,7-tetrahydropyrano[3,4-c]pyrazol-4-yl)-5,6,7,8-tetrahydroimidazo[1,5-a]pyridine-1-carboxamide]
- IC50 (MOLM-13 cells; [3]): 10 to 100 nM
- IC50 (recombinant human DHODH; [4]): 10 to 100 nM
